One test deals with T1, androgen receptor (AR) (Mus musculus, UniProt P19091).
T1 construct: in the L929 cells which express the AR but not the PR; endogenous in cells; host or cells: L929 cells
T1 sequence (P19091 1-899): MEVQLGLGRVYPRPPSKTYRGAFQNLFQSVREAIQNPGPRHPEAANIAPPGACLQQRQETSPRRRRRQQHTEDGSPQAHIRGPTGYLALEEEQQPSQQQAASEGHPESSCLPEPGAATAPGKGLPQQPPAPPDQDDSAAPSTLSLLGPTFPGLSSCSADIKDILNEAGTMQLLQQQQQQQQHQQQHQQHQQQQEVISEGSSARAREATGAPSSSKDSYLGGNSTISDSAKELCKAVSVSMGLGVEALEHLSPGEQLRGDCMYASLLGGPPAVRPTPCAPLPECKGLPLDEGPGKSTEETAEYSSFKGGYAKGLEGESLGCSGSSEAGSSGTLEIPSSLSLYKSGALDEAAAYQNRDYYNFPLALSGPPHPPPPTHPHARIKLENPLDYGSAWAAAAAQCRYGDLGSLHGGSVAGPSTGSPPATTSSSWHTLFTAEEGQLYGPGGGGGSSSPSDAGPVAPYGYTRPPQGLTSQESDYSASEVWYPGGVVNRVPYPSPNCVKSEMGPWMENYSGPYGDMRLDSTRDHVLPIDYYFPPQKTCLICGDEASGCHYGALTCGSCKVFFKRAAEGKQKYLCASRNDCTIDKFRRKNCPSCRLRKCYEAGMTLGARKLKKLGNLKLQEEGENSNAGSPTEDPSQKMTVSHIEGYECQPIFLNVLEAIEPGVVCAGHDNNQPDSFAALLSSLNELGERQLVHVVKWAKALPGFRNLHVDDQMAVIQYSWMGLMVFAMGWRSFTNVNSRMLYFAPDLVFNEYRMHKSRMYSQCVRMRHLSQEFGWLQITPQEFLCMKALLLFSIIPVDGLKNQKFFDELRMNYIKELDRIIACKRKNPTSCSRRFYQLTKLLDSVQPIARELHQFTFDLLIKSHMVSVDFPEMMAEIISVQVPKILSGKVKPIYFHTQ
Kind of test: Androgen receptor agonistic and antagonistic activity, PRE-tk-luciferase reporter in L929 cells. In kind it is cell-based. The procedure: The androgen receptor (AR) agonistic and antagonistic activity of the compositions of the invention in the L929 cells which express the AR but not the PR was evaluated as described in Zhang et al., Steroids, 65(10–11): 637–643 (October–November 2000).
Cells were plated in 96-well plates at 25,000 cells/well in DMEM (BioWhittaker) with 10% (v/v) fetal bovine serum (FBS). The next day, cells were infected with the adenovirus PRE-tk-luciferase reporter construct (2×10^9 pfu/ml particles) and kept in DMEM containing 10% charcoal stripped FBS for an additional 24 hours. […] To test the anti-androgenic activity, cells were co-treated with 3 nM DHT. Luciferase activity was measured 24 hours following the treatment.
(Reporter assays use an easily measured gene product as a stand-in for the process of interest.)

Another test relates to acne vulgaris. In words: Treatment of acne in a human patient, oral tablet daily. In kind it is in vivo. The conditions noted are these: about 20 mg tablet orally daily. The procedure:
A human patient having acne vulgaris is treated according to the present invention. Specifically, 5-(5-Cyano-1-methyl-1H-pyrrol-2-yl)spiro[cyclohexane-1,3′-[3H]indol]-2′-ylidenecyanamide is orally delivered to the patient daily. Delivery is in the form of a tablet formulated to contain about 20 mg of 5′-(5-Cyano-1-methyl-1H-pyrrol-2-yl)spiro[cyclohexane-1,3′-[3H]indol]-2′-ylidenecyanamide.

Another test deals with eczema. In words: Conditioning the skin of a human patient with severe eczema. It counts as in vivo. The conditions noted are these: about 50 mg daily. The procedure: A human patient having a severe form of eczema is treated according to the present invention. Specifically, about 50 mg of 5′-(5-Cyano-1-methyl-1H-pyrrol-2-yl)spiro[cyclohexane-1,3′-[3H]indol]-2′-ylidenecyanamide is delivered to the patient daily.

The term IC50 denotes the concentration that inhibits the measured activity by half. On to `Cn1c(C#N)ccc1-c1ccc2c(c1)C1(CCCCC1)C(=NC#N)N2` [5′-(5-Cyano-1-methyl-1H-pyrrol-2-yl)spiro[cyclohexane-1,3′-[3H]indol]-2′-ylidenecyanamide], for which the agonistic activity entry at androgen receptor (AR) (at the maximum concentration tested (10 nM)) is recorded as “only marginal agonistic activity”. Also, the IC50 on androgen receptor (AR) (co-treated with 3 nM DHT, luciferase activity 24 hours after treatment, read-out: IC50 (anti-androgenic activity)) was 313 nM. Moreover, the antagonistic activity entry at androgen receptor (AR) (nine point dose response, co-treated with 3 nM DHT) is on record as “significant antagonistic activity”. For the same compound, the acne vulgaris entry in the test on acne vulgaris (after about 24 weeks) was “improvement in the acne vulgaris is observed”. Besides, the “presence of lesions caused by acne vulgaris” value in the test with acne vulgaris (forty-five to sixty days after the treatment) is listed as “a decrease in the presence of lesions caused by acne vulgaris is noticed”. The eczema entry in the test on eczema (after about 12 weeks) is reported as “improvement in the eczema is observed”. The “dryness of the skin” value in the test on eczema (thirty days after the treatment) was “a decrease in the dryness affected to the skin is noticed”.

Values taken from US7115649B2, “Methods of treating skin disorders using thio-oxindole derivatives” (Wyeth, priority 2002, dated 2006).
